Test results: ChEMBL document CHEMBL1154116, “Predictive models, based on classification algorithms, for compounds potentially active as mitochondrial ATP-sensitive potassium channel openers” (Bioorg Med Chem, 2009)
Calls of active or inactive are those of the source. The rule behind the calls is not given here.

What follows are compounds tested on Heart (assay: Cardioprotective effect in Langendorff perfused isolated rat hearts assessed as reduction in ischemic injury).
Format: functional, tissue-based
With `CC(=O)Nc1ccc(CN2CC3(CC(C)(C)Oc4ccc(Br)cc43)OCC2=O)cc1` (stereo not given) the Activity was “inactive”.
In the case of `CC1(C)CC2(CN(Cc3ccc(C(F)(F)F)cc3)C(=O)CO2)c2ccccc2O1` (stereo not given), the Activity is reported as “inactive”.
In the case of `CC1(C)CC2(CN(Cc3ccccc3)C(=O)CO2)c2ccccc2O1` (stereo not given), the Activity is reported as “inactive”.
In the case of `CC1(C)CC2(CN(Cc3ccc(N)cc3)C(=O)CO2)c2cc(Br)ccc2O1` (stereo not given), the Activity is reported as “Active”.
With `CC1(C)CC2(CN(Cc3ccc(Br)cc3)CCO2)c2ccccc2O1` (stereo not given) the Activity was “inactive”.
In the case of `CC1(C)CN(C2=CCCC2=O)c2cc(C#N)ccc2S1`, the Activity is reported as “Active”.
`CC1(C)CC2(CN(C(=O)c3ccccc3)CCO2)c2ccccc2O1` (stereo not given) was tested, and the Activity was “inactive”.
For `CC1(C)CC2(CN(Cc3ccc(NS(C)(=O)=O)cc3)C(=O)CO2)c2cc(Br)ccc2O1` (stereo not given), the Activity was “Active”.
In the case of `CC1=Nc2ccc(Cl)cc2S(=O)(=O)N1`, the Activity is reported as “Active”.
In the case of `CC1(C)CC2(CN(Cc3ccc(Br)cc3)C(=O)CO2)c2ccccc2O1` (stereo not given), the Activity is reported as “Active”.
`CC1(C)CC2(CN(Cc3ccc(NS(C)(=O)=O)cc3)CCO2)c2cc(Br)ccc2O1` (stereo not given) was tested, and the Activity was “Active”.
For `COc1cccc(CN2CCOC3(C2)CC(C)(C)Oc2ccc(Br)cc23)c1` (stereo not given), the Activity was “Active”.
In the case of `CC1(C)CC2(CN(Cc3ccc(NS(C)(=O)=O)cc3)CCO2)c2ccccc2O1` (stereo not given), the Activity is reported as “inactive”.
With `Cc1ccc(CN2CC3(CC(C)(C)Oc4ccccc43)OCC2=O)cc1` (stereo not given) the Activity was “inactive”.
`CC1(C)CC2(CN(Cc3ccccc3)C(=S)CO2)c2cc(Br)ccc2O1` (stereo not given) was tested, and the Activity was “inactive”.
For `COc1ccc(CN2CCOC3(C2)CC(C)(C)Oc2ccccc23)cc1` (stereo not given), the Activity was “Active”.
In the case of `CC(=O)Nc1ccc(CN2CC3(CC(C)(C)Oc4ccccc43)OC2=O)cc1` (stereo not given), the Activity is reported as “inactive”.
For `CC1(C)Oc2ccc(C#N)cc2[C@H](N(Cc2ncc[nH]2)c2ccc(Cl)cc2)[C@H]1O`, the Activity was “Active”.
In the case of `CC(=O)Nc1ccc(CN2C(=N)C3(CC(C)(C)Oc4ccccc43)OC2=O)cc1` (stereo not given), the Activity is reported as “Active”.
With `CC1(C)CC2(CN(Cc3ccccc3)CCO2)c2ccccc2O1` (stereo not given) the Activity was “Active”.
With `CC1(C)CC2(CN(Cc3ccc(N)cc3)C(=O)CO2)c2ccccc2O1` (stereo not given) the Activity was “Active”.
For `COc1ccc(CN2CC3(CC(C)(C)Oc4ccccc43)OCC2=O)cc1` (stereo not given), the Activity was “inactive”.
For `Cc1ccc(CN2CCOC3(C2)CC(C)(C)Oc2ccc(Br)cc23)cc1` (stereo not given), the Activity was “Active”.
With `CC1(C)CC2(CN(Cc3ccc(C(F)(F)F)cc3)C(=O)CO2)c2cc(Br)ccc2O1` (stereo not given) the Activity was “inactive”.
`COc1ccccc1CN1CC2(CC(C)(C)Oc3ccc(Br)cc32)OCC1=O` (stereo not given) was tested, and the Activity was “Active”.
`CC1(C)CC2(CN(Cc3ccc(NS(C)(=O)=O)cc3)C(=O)CO2)c2ccccc2O1` (stereo not given) was tested, and the Activity was “Active”.
For `COc1cccc(CN2CCOC3(C2)CC(C)(C)Oc2ccccc23)c1` (stereo not given), the Activity was “inactive”.
For `CC1(C)CC2(CN(Cc3ccccc3)C(=S)CO2)c2ccccc2O1` (stereo not given), the Activity was “Active”.
In the case of `CC(=O)Nc1ccc(CN2CCOC3(C2)CC(C)(C)Oc2ccc(Br)cc23)cc1` (stereo not given), the Activity is reported as “inactive”.
With `CC1(C)Oc2ccc(C#N)cc2[C@@H](/N=C(\NC#N)Nc2ccc(Cl)cc2)[C@@H]1O` (single isomer, unassigned) the Activity was “Active”.
In the case of `CC1(C)CC2(CN(S(=O)(=O)c3ccccc3)C(=O)CO2)c2ccccc2O1` (stereo not given), the Activity is reported as “inactive”.
For `CC(=O)Nc1ccc(CN2CCOC3(C2)CC(C)(C)Oc2ccccc23)cc1` (stereo not given), the Activity was “inactive”.
For `CC1(C)CC2(CN(Cc3ccccc3)C(=O)CO2)c2cc(Br)ccc2O1` (stereo not given), the Activity was “inactive”.
With `CC1(C)CC2(OC(=O)N(Cc3ccc(NS(C)(=O)=O)cc3)C2=N)c2cc(Br)ccc2O1` (stereo not given) the Activity was “inactive”.
For `CC1(C)CC2(CN(S(=O)(=O)c3ccccc3)CCO2)c2ccccc2O1` (stereo not given), the Activity was “inactive”.
`COc1ccc(CN2CCOC3(C2)CC(C)(C)Oc2ccc(Br)cc23)cc1` (stereo not given) was tested, and the Activity was “inactive”.
With `CC1(C)CC2(OC(=O)N(Cc3ccc(NS(C)(=O)=O)cc3)C2=N)c2ccccc2O1` (stereo not given) the Activity was “inactive”.
`CC1(C)CC2(OC(=O)N(Cc3ccccc3)C2=N)c2cc(Br)ccc2O1` (stereo not given) was tested, and the Activity was “inactive”.
`CC1(C)CN(C2=CCCC2=O)c2cc([N+](=O)[O-])ccc2S1` was tested, and the Activity was “Active”.
For `CC1(C)CC2(CN(Cc3ccc(N)cc3)CCO2)c2ccccc2O1` (stereo not given), the Activity was “Active”.
With `COc1cccc(CN2CC3(CC(C)(C)Oc4ccc(Br)cc43)OCC2=O)c1` (stereo not given) the Activity was “inactive”.
With `Cc1ccc(CN2CC3(CC(C)(C)Oc4ccc(Br)cc43)OCC2=O)cc1` (stereo not given) the Activity was “inactive”.
For `CC1(C)CC2(CN(Cc3ccc(N)cc3)CCO2)c2cc(Br)ccc2O1` (stereo not given), the Activity was “inactive”.
`CC(N/C(=N\C#N)Nc1ccncc1)C(C)(C)C` (stereo not given) was tested, and the Activity was “Active”.
`CC1(C)CC2(CN(Cc3ccc(NS(C)(=O)=O)cc3)C(=O)O2)c2ccccc2O1` (stereo not given) was tested, and the Activity was “inactive”.
With `CC1(C)CC2(CN(C(=O)c3ccccc3)C(=O)CO2)c2ccccc2O1` (stereo not given) the Activity was “inactive”.
`COc1ccccc1CN1CC2(CC(C)(C)Oc3ccccc32)OCC1=O` (stereo not given) was tested, and the Activity was “Active”.
In the case of `CC1(C)CC2(CN(Cc3ccccc3)CCO2)c2cc(Br)ccc2O1` (stereo not given), the Activity is reported as “inactive”.
In the case of `COc1cccc(CN2CC3(CC(C)(C)Oc4ccccc43)OCC2=O)c1` (stereo not given), the Activity is reported as “inactive”.
`CC1(C)CC2(CN(Cc3ccc(C(F)(F)F)cc3)CCO2)c2cc(Br)ccc2O1` (stereo not given) was tested, and the Activity was “Active”.
`CC(=O)Nc1ccc(CN2CC3(CC(C)(C)Oc4ccccc43)OCC2=O)cc1` (stereo not given) was tested, and the Activity was “Active”.
In the case of `Cc1ccc(C(=O)N2CCOC3(C2)CC(C)(C)Oc2ccccc23)cc1` (stereo not given), the Activity is reported as “inactive”.
`CC(=O)Nc1ccc(C(=O)N2CCOC3(C2)CC(C)(C)Oc2ccccc23)cc1` (stereo not given) was tested, and the Activity was “inactive”.
In the case of `CC1(C)CN(C2=CCCC2=O)c2cc(C(F)(F)F)ccc2S1`, the Activity is reported as “Active”.
`CC1(C)CC2(CN(Cc3ccc(C(F)(F)F)cc3)CCO2)c2ccccc2O1` (stereo not given) was tested, and the Activity was “inactive”.
With `CC1(C)Oc2ccc(C#N)cc2C(N2CCCC2=O)C1O` (stereo not given) the Activity was “Active”.
`COc1ccc(CN2CC3(CC(C)(C)Oc4ccc(Br)cc43)OCC2=O)cc1` (stereo not given) was tested, and the Activity was “Active”.
`Cc1ccc(CN2CCOC3(C2)CC(C)(C)Oc2ccccc23)cc1` (stereo not given) was tested, and the Activity was “Active”.
With `CC1(C)CC2(CN(Cc3ccc(Br)cc3)C(=O)CO2)c2cc(Br)ccc2O1` (stereo not given) the Activity was “inactive”.
In the case of `CCC(C)(C)/N=C(\NC#N)Nc1cccnc1`, the Activity is reported as “inactive”.
